# Patent US11020414B2, “Antimicrobial compositions with cysteamine” (priority 2010, dated 2021)
# Several values for one entry are separate records, joined by “and”; a condition that tells them apart may be missing. Identical values can stand only once. Like-named read-outs stand apart in the source and are kept apart here.
# Tests used:
# [1] = system: Pseudomonas aeruginosa Pa14; assay: MIC determination, strain Pa14; assay type: cell-based
# Procedure: (§1) The bacterial inoculum was established by the dilution method from actively-growing cultures in Mueller-Hinton (MH) broth, standardized with 0.5 McFarland turbidity standard as described in the CLSI method M26-A.
# (§2) Both the bacterial inoculum and the antimicrobial agents, including the compounds structurally related to cysteamine, were added simultaneously to the plates. The plates were incubated at 37° C. for 24 h and the optical density was read at 625 nm on a microtitre plate reader (BioTek Powerwave XS, Winooski, USA). […]
# (§3) A number of compounds related in chemical structure to cysteamine were examined for antimicrobial activity; cystamine (dihydrochloride salt), taurine and 2,3-dimercaptosuccinic acid. Other compounds chemically related to cysteamine are known, but are toxic, and are therefore of no utility in a drug of this nature.
# [2] = system: 4 P. aeruginosa (PAO1, ATCC27853, DSMZ1128 and DSMZ1299) and 2 B. cepacia complex strains (NCTC10743 and NCTC10744); assay: microbe, parasite or virus in culture; assay type: cell-based, Pseudomonas aeruginosa; Burkholderia cepacia complex; details: Pseudomonas aeruginosa, read-out: MIC100
# Excerpt: (§4) The complex pathophysiology of CF is characterized by airway obstruction caused by abnormal mucus secretion and infection, with 60-80% of patients being chronically infected with the biofilm-forming bacteria Pseudomonas aeruginosa (George et al., 2009). With a prevalence of up to 10% in adult CF patients, B. cepacia complex is a rare but major concern due to its high virulence, morbidity and transmissibility (O'Malley, 2009; Brüssow, 2012). We tested the antimicrobial activity of cysteamine-tobramycin combinations in artificial sputum medium (Yang, et al., 2011) against 4 P. aeruginosa (PAO1, ATCC27853, DSMZ1128 and DSMZ1299) and 2 B. cepacia complex strains (NCTC10743 and NCTC10744).
# [3] = system: Pseudomonas aeruginosa Pa57388D; assay: FIC index of combinations with conventional antibiotics, strain Pa57388D; assay type: cell-based; details: strain Pa57388D (Col^R, Gent^R), listed as Cysteamine (NM001)
# Procedure: as §1
# (§5) Both the bacterial inoculum and the antimicrobial agents, including the compounds structurally related to cysteamine, were added simultaneously to the plates. The plates were incubated at 37° C. for 24 h and the optical density was read at 625 nm on a microtitre plate reader (BioTek Powerwave XS, Winooski, USA). The MIC was obtained as the lowest concentration of antimicrobial showing total inhibition of bacterial growth.
# (§6) The FIC corresponds to an interaction coefficient indicating whether the combination of antimicrobial agents is synergistic, additive, antagonist or neutral. The FIC is determined by comparing the activity of an agent in combination (MIC of agent A+agent B) with the activity of the agent alone (MIC of agent A or agent B) as follow (Singh et al., 2000): FIC=MICA[combination]/MICA[alone]+MICB[combination]/MICB[alone]
# (§7) Additive combinations of two antimicrobial agents are indicated by a FIC index of 1, whereas a FIC index<1 indicates synergistic combinations. Neutral combinations would give a FIC between 1 and 4, a FIC index higher than 4 indicates antagonist effects between the two antimicrobial agents.
# (§8) The FIC was also calculated to assess the interaction of two antimicrobial agents in combination against bacterial samples.
# [4] = system: Pseudomonas aeruginosa Pa14; assay: FIC index of combinations with conventional antibiotics, strain Pa14; assay type: cell-based; details: strain Pa14 (Col^R)
# Procedure: as §1, §5, §6, §7, §8
# [5] = system: Burkholderia cepacia NCTC10743; assay: MIC100 and FIC of cysteamine and tobramycin, MH broth (CLSI) and artificial sputum medium; assay type: cell-based
# Procedure: as §5, §6, §4
# [6] = system: Burkholderia cepacia NCTC10744; assay: as above; assay type: cell-based; details: read-out: MIC100, agent alone
# Procedure: as §5, §6, §4
# [7] = system: Pseudomonas aeruginosa Pa058; assay: FIC index of combinations with conventional antibiotics, strain Pa058; assay type: cell-based; details: strain Pa058 (Col^R, Cip^R Tob^R), listed as Cysteamine (NM001)
# Procedure: as §1, §5, §6, §7, §8
# [8] = system: Pseudomonas aeruginosa cells; assay: Tobramycin alone and with cysteamine in non-mucous and mucous environment (FIG. 3); assay type: cell-based; details: mucous environment (NaCl and/or mucin)
# Excerpt: FIG. 3: provides a comparison of the activity of Tobramycin alone and when in combination with cysteamine (NM001) against Pseudomonas aeruginosa cells cultured in a non-mucous environment and when cultured in a mucous environment replicating that found within the CF lung (in the presence of NaCl and/or mucin).
# [9] = system: P. aeruginosa PAO1 biofilms; assay: Post-antimicrobial effect and metabolic activity of biofilms after treatment (FIG. 9, 10); assay type: cell-based, Pseudomonas aeruginosa; details: 24 h following treatment of the biofilms
# Procedure: FIG. 9: is a graph showing the post-antimicrobial effect of cysteamine (NM001) in combination with Tobramycin versus P. aeruginosa PAO1 biofilms. […] The PAE was determined by transfer of 10 μl biofilm cultures into 90 μl sterile MH broth in triplicate in microtitre plates following treatment. Bacterial growth was followed on a BioTek plate reader for 24 h at 37° C. Microbial metabolic activity following treatment of the biofilms was determined using the same method as for PAE determination and adding 10% (v/v) of a fluorescent cell viability indicator, resazurin (Alamar Blue, Serotec), which detected microbial metabolic activity growth by increase in fluorescence. Fluorescence was measured over 24 h at 37° C. using a BioTek Synergy HT microplate reader (BioTek, Winooski, USA) at 530/590 nm.
# [10] = system: Pseudomonas aeruginosa Pa01; assay: MIC determination, strain Pa01; assay type: cell-based
# Procedure: as §1, §2, §3
# [11] = in combination with Ciprofloxacin
smiles,measurement,setting,value
"NCCS [Cysteamine, cysteamine]",MIC50,[1],125 to 250 µg/mL
same,MIC90,[1],500 µg/mL
same,MIC,[1]; read-out: MIC100,1330 µg/mL
same,MIC,[2],250 to 500 µg/mL
same,FICI (Additive) Cip,[3]; [11],0.53 and 0.56 and 0.52 and 0.75
same,FICI (Additive) Col,[3]; in combination with Colistin,0.62 and 0.53 and 0.56 and 0.5
same,FICI (Synergy) Col,[3]; in combination with Colistin,0.31 and 0.38
same,FICI (Additive) Gent,[3]; in combination with Gentamicin,0.5 and 0.63 and 0.51
same,FICI (Synergy) Gent,[3]; in combination with Gentamicin,0.38
same,FICI (Additive) Tob,[3]; in combination with Tobramycin,0.56 and 0.51 and 0.52
same,FICI (Synergy) Tob,[3]; in combination with Tobramycin,0.38 and 0.31 and 0.25
same,FICI (Additive) Cip,"[4]; in combination with Ciprofloxacin, listed as Cysteamine (NM001)",0.75 and 0.63
same,FICI (Synergy) Col,[4]; in combination with Colistin,0.38
same,FICI (Additive) Col,"[4]; in combination with Colistin, listed as Cysteamine (NM001)",0.53 and 0.5 and 0.56
same,FICI (Additive) Gent,"[4]; in combination with Gentamicin, listed as Cysteamine (NM001)",0.63 and 0.5 and 0.75
same,FICI (Additive) Tob,"[4]; in combination with Tobramycin, listed as Cysteamine (NM001)",0.56 and 0.75 and 0.5
same,MIC,"[5]; NCTC10743, B. cepacia NCTC10743, FIG. 6, read-out: MIC100, agent alone",500 µg/mL
same,MIC,"[5]; NCTC10743, B. cepacia NCTC10743, in both media (MH broth and ASM), FIG. 11, read-out: MIC100, agent alone",500 µg/mL
same,MIC,"[5]; NCTC10743, B. cepacia NH10743, ASM (Artificial Sputum Medium), read-out: MIC100, agent alone",500 µg/mL
same,MIC,"[5]; NCTC10743, B. cepacia NH10743, CLSI, read-out: MIC100, agent alone",250 µg/mL
same,MIC,"[6]; NCTC10744, B. cepacia NH10744, ASM (Artificial Sputum Medium)",500 µg/mL
same,MIC,"[6]; NCTC10744, B. cepacia NH10744, CLSI",250 µg/mL
same,FICI (Additive) Cip,[7]; [11],0.53 and 0.56
same,FICI (Additive) Col,[7]; in combination with Colistin,0.75 and 0.53 and 0.56 and 0.5
same,FICI (Additive) Gent,[7]; in combination with Gentamicin,0.56 and 0.5 and 0.75
same,FICI (Additive) Tob,[7]; in combination with Tobramycin,0.52 and 0.56 and 0.5 and 0.53 and 0.63 and 0.75
same,effect on activity of conventional antibiotics,[8],restores antibiotic activity
same,"post-antimicrobial effect (delayed bacterial growth, reduced metabolic activity of the biofilm)",[9],significant PAE
same,MIC50,[10],250 to 500 µg/mL
same,MIC90,[10],500 µg/mL
same,MIC,[10]; read-out: MIC100,667 µg/mL
